The values below are quoted from earlier work in US20200206184A1, “PHARMACEUTICAL COMPOSITIONS FOR THE TREATMENT OF DISEASE AND/OR SYMPTOMS IN ARTHRITIS” (priority 2004, published 2020).

In data set [1] the test system is patient with Mediterranean fever. The settings on record: 50 mg of THC.
Data set [2] relates to PBQ-induced writhing in mice. The settings on record: ranking among cannabinoids.
Data set [3] has as its system nitric oxide.
The subject of data set [4] is TNF-α.
Data set [5] deals with collagen induced arthritis model in mice.

Take `CCCCCc1cc(O)c2c(c1)OC(C)(C)[C@@H]1CCC(C)=C[C@@H]21` [THC, delta-9-tetrahydrocannabinol]: in data set [1], the “Amount of analgesia that the patient required” value is recorded as “highly significant reduction”. Also, the “Reducing analgesia and inflammation” value in data set [2] is “least effective”.
For the molecule `CCCCCc1cc(O)c2c(c1)OC(C)(C)c1ccc(C)cc1-2` [CBN], the “Reducing analgesia and inflammation” value in data set [2] is listed as “least effective”.
Consider `C=C(C)[C@@H]1CCC(C)=C[C@H]1c1c(O)cc(CCCCC)cc1O` [CBD, cannabidiol], for which the Nitric oxide production result in data set [3] is “inhibition”. Moreover, the TNF-α production entry in data set [4] was “inhibition”. In data set [2] (mice, oral administration), the “Inhibition of PBQ-induced writhing” value was “most effective”. The “Arthritis in collagen induced arthritis model” value in data set [5] is “suppress arthritis in a dose dependant manner”.
